The source of these data is patent publication US11026936B2, “Piperidinyl-propanone derivatives” (Merck Patent GmbH, priority 2016, dated 2021).

As usually defined, the IC50 is the concentration needed to halve the response being measured. As a reminder, the Kd is the free concentration of one partner at which half of the binding sites on the other are occupied at equilibrium, for simple one-to-one binding.

Experiment [1] relates to PDH-E1alpha (pSer300) in HEK293T cells. In words: Cellular immunofluorescence assay, PDH-E1alpha (pSer300). It counts as cell-based. The following applies: Homo sapiens, HEK-293T, 5 hours incubation, read-out: IC50 (cell data). The method, then: Cellular Assay for Determination of Compound Activities
Compound activities were determined in a cellular immunofluorescence assay. Human HEK293T cells were seeded into black 384-well plates with clear bottom and grown overnight.
Next day, test compounds were added to the wells and the plates incubated for 5 hours. Following this, cells were fixed with formaldehyde, permeabilised and blocked. The primary antibody, Anti-PDH-E1alpha (pSer300), AP1064 (Merck Millipore) was added and incubated overnight in the plate wells. Next, cells were washed and the seconday antibody, Alexa Fluor 488, goat anti-rabbit ab (A-11008, Invitrogen) was added together with Hoechst 33258 (H3569, Invitrogen) and incubated for 1 hour in the plate wells. Finally, cells were washed and the plates were measured on the laser scanning cytometer acumen hci (TTpLabtech).
The raw data were normalized against a pharmacological inhibitor control and dose response curves were generated by plotting the percent effect values using the software package Genedata screener (Genedata).

The target of another experiment is PDHK2 (Homo sapiens (Human), UniProt Q15119). Description: Biochemical activity testing of PDHK2: PDC inactivation assay. The conditions noted are these: human rec PDHK2, PDC from porcine heart, ATP 5 μM; read-out: IC50 PDHK2 (enzyme assay). The source says: Biochemical Activity Testing of PDHK2: PDC Inactivation Assay
The biochemical activity assay for PDHK2 is based on the inactivation of PDC through phosphorylation by PDHK2. The assay is run in two steps: the enzymatic PDHK2 reaction in which isolated PDC is phosphorylated by PDHK2 with ATP as co-substrate and the PDC activity assay in which pyruvate and NAD are converted to acetyl-CoA and NADH. The PDC activity correlates to the increase in NADH and thereby is detectable directly via the increasing fluorescence signal (Exc 340 nm, Em 450 nm). Inhibition of PDHK2 results in a lower phosphorylation status and thereby a less decrease in activity of PDC and a stronger increase in NADH fluorescence signal.
The PDC inactivation assay is performed in Greiner 384-well microtiter plates and is used for high throughput screen. 4 μl of PDHK2 (human, rec, Carna Bioscience, 10 ng/μl-137 nM final concentration) and PDC (isolated from porcine heart, Sigma-Aldrich, 20 mU/ml final concentration) are incubated in the absence or presence of the test compound (10 dilution concentrations) for 30 min at room temperature in kinase buffer (15 mM potassium phosphate buffer, pH 7.0, 60 mM KCl, 1.5 mM DTT, 2.5 mM MgCl2, 0.0125% (w/v) BSA, 0.125% Pluronic F-68). The kinase reaction is started by the addition of 4 μl ATP substrate solution (fc 5 μM in kinase buffer). After 30 min incubation at 37° C. 40 μl of PDC reaction solution (100 mM Tris/HCl, pH 7.8, 0.5 mM EDTA, 1 mM MgCl2, 50 mM NaF, 0.25 mM Coenzyme A, 5 mM pyruvate, 1 mM NAD, 5 mM DTT, 1 mM thiamine pyrophosphate) is added. The first fluorescence measurement is performed on a Perkin Elmer Envision (Exc 340 nm, Em 450 nm). The reaction is incubated for 45 min at room temperature. Afterwards a second fluorescence measurement is performed and the PDC activity is calculated by the difference between both measurements. As full value for the PDHK2 assay the inhibitor-free PDHK2 reaction is used. The pharmacological zero value used is DCA (Sigma-Aldrich) in a final concentration of 3 mM. The inhibitory values (IC50) were determined using either the program Symyx Assay Explorer® or Condosseo® from GeneData.

The target in another experiment is human PDHK2 (12-407) (Homo sapiens (Human), UniProt Q15119). Description: Isothermal titration calorimetry (ITC) binding. The following applies: 30° C., pH 7.5. The method, then: Isothermal Titration Calorimetry
ITC measurements were performed with a VP-ITC micro calorimeter (Microcal, LLC/GE Healthcare Bio-Sciences AB, Uppsala, Sweden). In general titrations were performed by titrating the protein (50 μM) to the test compound (5 μM) in 12 μl injections. All binding experiments were carried out at 30° C. In general the test compounds were diluted form DMSO stock solutions into the measurement buffer with a maximum final concentration of 1% DMSO. The measurement buffer was 20 mM HEPES, 135 mM KCl, 1 mM TCEP, 2 mM MgCl2, 15 mM NaH2PO4, pH 7.5. The human PDHK2 (12-407) was produced in E. coli as his-tagged protein and purified by affinity chromatography. The tag was removed by side specific proteolysis. Before titration the protein buffer was changed to the measurement buffer containing the same DMSO concentration as the test compound dilution. ITC data analysis was performed using Origin 7 calorimetry software from the same supplier. For most measurements a binding model of one binding site was assumed. According to the applied mathematical model it is possible to calculate the binding constant (KA), the observed binding enthalpy (ΔH^obs) as well as the stoichiometry (N) of the formed complex. Preceding analysis the raw data was corrected for the heats of dilution by extrapolating from the saturation value from the end of titration. In order to allow for direct comparison between the respective experimental series and protein preparations the protein concentration was corrected by referencing titrations to a well behaved standard inhibitor. The apparent stoichiometry values defined the fraction of binding competent protein and compensated for relative errors in protein concentration measurements. This corrected protein concentration was used to set up ITC experiment series with test compounds. Any deviations from ideal 1:1 stoichiometry observed here were attributed to errors in compound concentration. This nominal compound concentration was corrected as well to achieve 1:1 stoichiometry in the fit.
Background: ITC needs no label: the signal is the heat of the interaction.

Some results are limits rather than exact numbers.

`CC(C)(C)c1nnc(C2(C3CCN(C(=O)[C@@](C)(O)C(F)(F)F)CC3)CC2)o1` [Compound A8, (R)-1-{4-[1-(5-tert-Butyl-[1,3,4]oxadiazol-2-yl)-cyclopropyl]-piperidin-1-yl}-3,3,3-trifluoro-2-hydroxy-2-methyl-propan-1-one]: the results for the IC50 (in experiment [1]; at PDHK2) were 8700 nM and 2400 nM, respectively. Also, the Kd at human PDHK2 (12-407) stood at 650 nM.

On to `C[C@@](O)(C(=O)N1CCC(C2(c3nnc(-c4ccc(F)cc4)o3)CC2)CC1)C(F)(F)F` [Compound A6, (R)-3,3,3-Trifluoro-1-{4-{1-[5-(4-fluoro-phenyl)-[1,3,4]oxadiazol-2-yl]-cyclopropyl}-piperidin-1-yl}-2-hydroxy-2-methyl-propan-1-one], for which the results for the IC50 (in experiment [1]; at PDHK2) were 2000 nM and 500 nM, respectively. The same compound registered a Kd at human PDHK2 (12-407) of 270 nM.

Take `COc1ccc(-c2nnc(C3([C@H]4CCN(C(=O)[C@@](C)(O)C(F)(F)F)C[C@H]4C)CC3)[nH]2)cc1` [Compound A28, (R)-3,3,3-Trifluoro-2-hydroxy-1-((3S,4S)-4-{1-[5-(4-methoxy-phenyl)-4H-[1,2,4]triazol-3-yl]-cyclopropyl}-3-methyl-piperidin-1-yl)-2-methyl-propan-1-one]: the IC50 in experiment [1] worked out at 12 nM; on PDHK2, 88 nM. Moreover, at human PDHK2 (12-407), the Kd stood at 2.5 nM.

For the compound `C[C@@](O)(C(=O)N1CCC(C2(c3nnc(-c4ccccc4)[nH]3)CC2)CC1)C(F)(F)F` [Compound A1, (R)-3,3,3-Trifluoro-2-hydroxy-2-methyl-1-{4-[1-(5-phenyl-1H-[1,2,4]triazol-3-yl)-cyclopropyl]-piperidin-1-yl}-propan-1-one], the IC50 in experiment [1] turned out to be 3000 nM; on PDHK2, 590 nM. This compound gave a Kd on human PDHK2 (12-407) of 110 nM.

For `CC(C)(c1nnc(-c2ccccc2)[nH]1)C1CCN(C(=O)[C@@](C)(O)C(F)(F)F)CC1` [Compound A3, (R)-3,3,3-Trifluoro-2-hydroxy-2-methyl-1-{4-[1-methyl-1-(5-phenyl-4H-[1,2,4]triazol-3-yl)-ethyl]-piperidin-1-yl}-propan-1-one], the concentration for half-maximal inhibition (IC50) worked out at 3300 nM in experiment [1] and 320 nM at PDHK2. Besides, binding at human PDHK2 (12-407) was characterised by a dissociation constant (Kd) of 98 nM.

In the case of `C[C@@H]1CN(C(=O)[C@@](C)(O)C(F)(F)F)CC[C@@H]1C1(c2nnc(-c3ccc(F)cc3)[nH]2)CC1` [Compound A19, (R)-3,3,3-Trifluoro-1-((3S,4S)-4-{1-[5-(4-fluoro-phenyl)-4H-[1,2,4]triazol-3-yl]-cyclopropyl}-3-methyl-piperidin-1-yl)-2-hydroxy-2-methyl-propan-1-one], the IC50 in experiment [1] amounted to 28 nM; on PDHK2, 75 nM. For the same compound, the affinity on human PDHK2 (12-407), expressed as Kd, was 4.2 nM.

Consider `COc1ccc(-c2nnc(C3([C@H]4CCN(C(=O)[C@@](C)(O)C(F)(F)F)C[C@H]4C)CC3)o2)cc1` [Compound A31, (R)-3,3,3-Trifluoro-2-hydroxy-1-((3S,4S)-4-{1-[5-(4-methoxy-phenyl)-[1,3,4]oxadiazol-2-yl]-cyclopropyl}-3-methyl-piperidin-1-yl)-2-methyl-propan-1-one], for which the IC50 worked out at 17 nM in experiment [1] and 180 nM at PDHK2. The affinity on human PDHK2 (12-407), expressed as Kd, was 3.6 nM.

Consider `C[C@@H]1CN(C(=O)[C@@](C)(O)C(F)(F)F)CC[C@@H]1C1(c2nnc(-c3ccccc3)o2)CC1` (stereo in doubt) [Compound A16, (R)-3,3,3-Trifluoro-2-hydroxy-2-methyl-1-{(R)-3-methyl-4-[1-(5-phenyl-[1,3,4]oxadiazol-2-yl)-cyclopropyl]-piperidin-1-yl}-propan-1-one], for which the IC50 worked out at 35 nM in experiment [1] and 150 nM at PDHK2. Further, the Kd at human PDHK2 (12-407) came out at 4.9 nM.

Take `COc1ccc(-c2nnc(C3([C@H]4CCN(C(=O)[C@@](C)(O)C(F)(F)F)C[C@H]4C)CC3)[nH]2)cn1` [Compound A40, (R)-3,3,3-Trifluoro-2-hydroxy-1-((3S,4S)-4-{1-[5-(6-methoxy-pyridin-3-yl)-4H-[1,2,4]triazol-3-yl]-cyclopropyl}-3-methyl-piperidin-1-yl)-2-methyl-propan-1-one]: the values for the IC50 (in experiment [1]; on PDHK2) were 25 nM and 91 nM, respectively. This compound also gave a Kd on human PDHK2 (12-407) of 6.5 nM.

As for `CC1CN(C(=O)[C@@](C)(O)C(F)(F)F)CCC1C1(c2nnc(-c3ccccc3)o2)CC1` (stereo partly drawn) [Compound A12, (R)-3,3,3-Trifluoro-2-hydroxy-2-methyl-1-{3-methyl-4-[1-(5-phenyl-[1,3,4]oxadiazol-2-yl)-cyclopropyl]-piperidin-1-yl}-propan-1-one], the results for the IC50 (in experiment [1]; on PDHK2) were 56 nM and 270 nM, respectively. The same compound registered a Kd on human PDHK2 (12-407) of 8.7 nM.

With `C[C@@H]1CN(C(=O)[C@@](C)(O)C(F)(F)F)CC[C@@H]1C1(c2nnc(-c3ccc(Cl)cc3)[nH]2)CC1` [Compound A34, (R)-1-((3S,4S)-4-{1-[5-(4-Chloro-phenyl)-4H-[1,2,4]triazol-3-yl]-cyclopropyl}-3-methyl-piperidin-1-yl)-3,3,3-trifluoro-2-hydroxy-2-methyl-propan-1-one], the IC50 is 19 nM in experiment [1] and 180 nM at PDHK2. For the same compound, the dissociation constant (Kd) at human PDHK2 (12-407) was found to be 2.8 nM.

With `Cc1nnc(C2(C3CCN(C(=O)[C@@](C)(O)C(F)(F)F)CC3)CC2)o1` [Compound A7, (R)-3,3,3-Trifluoro-2-hydroxy-2-methyl-1-{4-[1-(5-methyl-[1,3,4]oxadiazol-2-yl)-cyclopropyl]-piperidin-1-yl}-propan-1-one], the results for the IC50 (in experiment [1]; at PDHK2) were above 30000 nM and 3500 nM, respectively. Further, the Kd at human PDHK2 (12-407) is 850 nM.

As for `Cc1ccc(-c2nnc(C3([C@H]4CCN(C(=O)[C@@](C)(O)C(F)(F)F)C[C@H]4C)CC3)[nH]2)cc1` [Compound A22, (R)-3,3,3-Trifluoro-2-hydroxy-2-methyl-1-{(3S,4S)-3-methyl-4-[1-(5-p-tolyl-4H-[1,2,4]triazol-3-yl)-cyclopropyl]-piperidin-1-yl}-propan-1-one], the concentration for half-maximal inhibition (IC50) stood at 16 nM in experiment [1] and 90 nM on PDHK2. On human PDHK2 (12-407), this compound gave a Kd of 2.6 nM.

As to `CC(C)(c1nnc(C2CCCCC2)[nH]1)C1CCN(C(=O)[C@@](C)(O)C(F)(F)F)CC1` [Compound A4, (R)-1-{4-[1-(5-Cyclohexyl-4H-[1,2,4]triazol-3-yl)-1-methyl-ethyl]-piperidin-1-yl}-3,3,3-trifluoro-2-hydroxy-2-methyl-propan-1-one], the IC50 in experiment [1] was 3900 nM; on PDHK2 it was 1400 nM. Moreover, at human PDHK2 (12-407), binding was characterised by a dissociation constant (Kd) of 290 nM.
